Data on two compounds can be found in US20080234203A1, “Use of Substances Having Oxytocin Antagonistic Properties” (Ferring BV, priority 2004, published 2008).

The test system of experiment [1] is pregnant rats. Nature of the experiment: Blood pressure measurements in pregnant rats (tail cuff). The format is in vivo, rat. As to conditions: 200 μg/d, gestational day 19 to 22 and pp1 to pp7. As for the experimental part:
The X axis represents the time of pregnancy (gestational age), and the Y axis represents the systolic blood pressure (mmHg). Barusiban (200 μg/d), atosiban (200 μg/d) and control (saline) (200 μg/d) were administered to pregnant rats from gestational day 19 to 22 and during pp1 to pp7 (pp=post partum).
Animals. Adult nulliparous pregnant rats (300-325 g body weight) were purchased from Harlan Sprague Dawley, Inc (Indianapolis, Ind.), and were received in the animal facilities on day 16 of pregnancy (with day 1 being the day of the positive sperm smear result). All animals were given free access to food and water.
Blood pressure measurement. Starting on day 19 of pregnancy systolic blood pressure was measured daily or every other day with a pneumatic tail cuff device (NARCO Biosystems, Inc, Austin, Tex.) in animals that had been warmed in a metal chamber maintained at approximately 30° C. Blood pressure values obtained from 3 consecutive measurements were averaged and recorded as the pressure for a given rat at each point. Measurements of systolic blood pressure of all animals were carried out until delivery and for seven days post partum (pp7) All animals delivered on day 22 of gestation, the expected day of delivery. Three groups of animals were studied: Group 1. […]
Statistical analysis. Mean +/− SEM values were calculated for blood pressure levels on each day of pregnancy and post partum. […]

Experiment [2] has as its system isolated uterine artery, femoral artery, carotoid artery and aorta. Kind of experiment: In vitro contractility of isolated arteries from non-pregnant WKY rats. The arrangement: species or system Wistar (WKY) rats. From the text:
(§1) Nonpregnant or timed-pregnant Sprague-Dawley rats (of a 22-day pregnancy, with day 1 being the day when the sperm plug was observed) were obtained from Charles River Laboratories (Houston, Tex.). In some studies Spontaneously Hypertensive Rats (SHR) and their respective normatensive controls (WKY) were used. Rats were killed by means of carbon dioxide inhalation on day 14 (midterm pregnant) or day 22 before labor (term pregnant) or during the estrus cycle (nonpregnant). […] Contractions of uterine vascular tissues (cut into rings) were recorded and stored on computer with the DI-220 (DataQ Instruments Inc, Akron, Ohio) data acquisition system. […]
(§2) Data were analyzed by using Windaq/200 (DataQ Instruments Inc) software. Integral activity as an area under the tracing of vascular contractions for 10 minutes (expressed as milligrams per second) before (basal activity) and after the addition of each concentration of the agent was calculated and compared with basal activity (as percentage change). […] The concentration of oxytocin causing 50% of the maximal effect was determined, and the −log50 of the half maximal effect and the area under the concentration-response curves were calculated and compared. The data are expressed as mean ± SD. […]

For experiment [3] the test system is unchanged. Nature of the experiment: In vitro contractility of isolated arteries from non-pregnant SHR rats. The arrangement: species or system spontaneous hypertensive (SHR) rats. As to conditions: uterine arteries compared with femoral artery.
Text: as §1, §2

Experiment [4] relates to isolated rat uterine artery. Nature of the experiment: In vitro contractility of isolated rat uterine artery from nonpregnant, midpregnant and late pregnant rats.
Text: The X axis-represents the oxytocin concentration {log M} and the Y axis represents % of phenylephrine-induced contraction. […] The following pD2 values were obtained, non-pregnant (9.32±0.41, n=7), midpregnant (7.46±0.13, n=6) and late pregnant (7.87±0.39, n=6). It could be speculated that the generally lower sensitivity of uterine vessels during pregnancy is related to eventually higher local oxytocin concentrations.
as §1, §2

As to “C^4,6, S^1-cyclo [Barusiban, C^4,6, S^1-cyclo [N-(3-sulfanylpropanoyl) -D-tryptophyl-L -isoleucyl-L-alloisoleucyl-L-asparaginyl-L-2-aminobutanoyl-N-methyl-L-ornithinol]]”, the systolic blood pressure entry in experiment [1] is given as “beneficial drop in systolic blood pressure around birth”.

Turning to `CC[C@H](C)[C@@H]1NC(=O)[C@H](Cc2ccc(O)cc2)NC(=O)[C@@H](N)CSSC[C@@H](C(=O)N2CCC[C@H]2C(=O)N[C@@H](CC(C)C)C(=O)NCC(N)=O)NC(=O)[C@H](CC(N)=O)NC(=O)[C@H](CCC(N)=O)NC1=O` [oxytocin], the “oxytocin sensitivity (contraction dose/response)” value in experiment [2] (uterine arteries compared with femoral artery, carotoid artery and aorta, non-pregnant WKY rats) is given as “outstanding high sensitivity”; in experiment [2] (uterine arteries of non-pregnant WKY rats compared with SHR rats) it was “higher sensitivity”; in experiment [3], “highest sensitivity”. In addition, the “pD2 (oxytocin-induced contraction, % of phenylephrine-induced contraction)” value in experiment [4] (uterine artery of late pregnant rats, n=6) was 7.87±0.39; in experiment [4] (uterine artery of midpregnant rats, n=6), 7.46±0.13; in experiment [4] (uterine artery of non-pregnant rats, n=7) it was 9.32±0.41.
